Laboratory results reported in patent publication US12077503B2, “Substituted cyclic amides and their use as herbicides” (FMC CORPORATION, priority 2015, dated 2024).
Like-named read-outs stand apart in the source and are kept apart here.

Key:
Assay type in all cases: in vivo
[1] = system: Kochia (Kochia scoparia); assay: Test A preemergence; conditions: Bassia scoparia, pre-emergence, 240 h; for pest or weed control at 500 g/ha: 500 g ai/ha, preemergence; for pest or weed control at 125 g/ha: Preemergence, 125 g ai/ha
Summary of the method: (§1)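 Visual injury, scored on a 0–100 scale relative to untreated controls, was recorded about 10 d after application. Treatments were a preemergence soil spray over planted seeds or a postemergence spray on plants at the one- to two-leaf stage, 2 to 10 cm tall, all in loam soil–sand blend in the greenhouse.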

[2] = system: barnyardgrass (Echinochloa crus-galli); assay: Test A preemergence; conditions: Echinochloa crus-galli, pre-emergence, 240 h; for pest or weed control at 500 g/ha: 500 g ai/ha, preemergence; for pest or weed control at 125 g/ha: Preemergence, 125 g ai/ha
Summary of the method: as §1

[3] = system: giant foxtail (Setaria faberii); assay: Test A preemergence; conditions: Setaria faberi, pre-emergence, 240 h; for pest or weed control at 500 g/ha: 500 g ai/ha, preemergence; for pest or weed control at 125 g/ha: Preemergence, 125 g ai/ha
Summary of the method: as §1

[4] = system: pigweed (Amaranthus retroflexus); assay: Test A preemergence; conditions: Amaranthus retroflexus, pre-emergence, 240 h; for pest or weed control at 500 g/ha: 500 g ai/ha, preemergence; for pest or weed control at 125 g/ha: Preemergence, 125 g ai/ha
[5] = system: ragweed (common ragweed, Ambrosia elatior); assay: Test A preemergence; conditions: Ambrosia artemisiifolia, pre-emergence, 240 h; for pest or weed control at 500 g/ha: 500 g ai/ha, preemergence; for pest or weed control at 125 g/ha: Preemergence, 125 g ai/ha
Summary of the method: as §1

[6] = system: ryegrass, Italian (Italian ryegrass, Lolium multiflorum); assay: Test A preemergence; conditions: Lolium multiflorum, pre-emergence, 240 h, 0 to 100 scale (0 no effect, 100 complete control), read-out: Plant response rating, Ryegrass, Italian; for pest or weed control at 125 g/ha: Preemergence, 125 g ai/ha
Summary of the method: as §1

[7] = system: Galium (catchweed bedstraw, Galium aparine); assay: Test A postemergence; conditions: Galium, post-emergence, 240 h, Postemergence; for pest or weed control at 125 g/ha: 125 g ai/ha, visual rating about 10 d after treatment, read-out: Galium plant response rating (0 to 100 scale); for pest or weed control at 500 g/ha: 500 g ai/ha, visual injury, 0 to 100 scale (0 no effect, 100 complete control), approx. 10 d, read-out: Plant response rating, Galium
Summary of the method: as §1

[8] = system: Kochia (Kochia scoparia); assay: Test A postemergence; conditions: Bassia scoparia, post-emergence, 240 h, Postemergence; for pest or weed control at 125 g/ha: 125 g ai/ha, visual rating about 10 d after treatment, read-out: Kochia plant response rating (0 to 100 scale); for pest or weed control at 500 g/ha: 500 g ai/ha, visual injury, 0 to 100 scale (0 no effect, 100 complete control), approx. 10 d, read-out: Plant response rating, Kochia
Summary of the method: as §1

[9] = system: blackgrass (Alopecurus myosuroides); assay: Test A postemergence; conditions: Alopecurus myosuroides, post-emergence, 240 h, Postemergence; for pest or weed control at 125 g/ha: 125 g ai/ha, visual rating about 10 d after treatment, read-out: Blackgrass plant response rating (0 to 100 scale); for pest or weed control at 500 g/ha: 500 g ai/ha, visual injury, 0 to 100 scale (0 no effect, 100 complete control), approx. 10 d, read-out: Plant response rating, Blackgrass
Summary of the method: as §1

[10] = system: corn (Zea mays); assay: Test A postemergence; conditions: Zea mays, post-emergence, 240 h, Postemergence; for plant injury at 125 g/ha: 125 g ai/ha, visual rating about 10 d after treatment, read-out: Corn plant response rating (0 to 100 scale); for Corn plant response rating (crop injury, 0 = no effect, 100 = complete kill) at 500 g/ha: 500 g ai/ha, visual injury, 0 to 100 scale (0 no effect, 100 complete control), approx. 10 d
Summary of the method: as §1

[11] = system: giant foxtail (Setaria faberii); assay: Test A postemergence; conditions: Setaria faberi, post-emergence, 240 h, Postemergence; for pest or weed control at 125 g/ha: 125 g ai/ha, visual rating about 10 d after treatment, read-out: Foxtail, Giant plant response rating (0 to 100 scale); for pest or weed control at 500 g/ha: 500 g ai/ha, visual injury, 0 to 100 scale (0 no effect, 100 complete control), approx. 10 d, read-out: Plant response rating, Foxtail, Giant
Summary of the method: as §1

[12] = system: pigweed (Amaranthus retroflexus); assay: Test A postemergence; conditions: Amaranthus retroflexus, post-emergence, 240 h, Postemergence; for pest or weed control at 125 g/ha: 125 g ai/ha, visual rating about 10 d after treatment, read-out: Pigweed plant response rating (0 to 100 scale); for pest or weed control at 500 g/ha: 500 g ai/ha, visual injury, 0 to 100 scale (0 no effect, 100 complete control), approx. 10 d, read-out: Plant response rating, Pigweed
Summary of the method: as §1

[13] = system: ragweed (common ragweed, Ambrosia elatior); assay: Test A postemergence; conditions: Ambrosia artemisiifolia, post-emergence, 240 h, Postemergence; for pest or weed control at 125 g/ha: 125 g ai/ha, visual rating about 10 d after treatment, read-out: Ragweed plant response rating (0 to 100 scale); for pest or weed control at 500 g/ha: 500 g ai/ha, visual injury, 0 to 100 scale (0 no effect, 100 complete control), approx. 10 d, read-out: Plant response rating, Ragweed
Summary of the method: as §1

[14] = system: ryegrass, Italian (Italian ryegrass, Lolium multiflorum); assay: Test A postemergence; conditions: Lolium multiflorum, post-emergence, 240 h, Postemergence; for pest or weed control at 125 g/ha: 125 g ai/ha, visual rating about 10 d after treatment, read-out: Ryegrass, Italian plant response rating (0 to 100 scale); for pest or weed control at 500 g/ha: 500 g ai/ha, visual injury, 0 to 100 scale (0 no effect, 100 complete control), approx. 10 d, read-out: Plant response rating, Ryegrass, Italian
Summary of the method: as §1

[15] = system: wheat (Triticum aestivum); assay: Test A postemergence; conditions: Triticum aestivum, post-emergence, 240 h, Postemergence; for plant injury at 125 g/ha: 125 g ai/ha, visual rating about 10 d after treatment, read-out: Wheat plant response rating (0 to 100 scale); for plant injury at 500 g/ha: 500 g ai/ha, visual injury, 0 to 100 scale (0 no effect, 100 complete control), approx. 10 d, read-out: Plant response rating, Wheat
Summary of the method: as §1

[16] = 0 to 100 scale (0 no effect, 100 complete control), read-out: Plant response rating, Kochia
[17] = 0 to 100 scale (0 no effect, 100 complete control), read-out: Plant response rating, Barnyardgrass
[18] = 0 to 100 scale (0 no effect, 100 complete control), read-out: Plant response rating, Foxtail, Giant
[19] = 0 to 100 scale (0 no effect, 100 complete control), read-out: Plant response rating, Pigweed
[20] = 0 to 100 scale (0 no effect, 100 complete control), read-out: Plant response rating, Ragweed

CSc1ccccc1NC(=O)[C@H]1C(=O)N(C)C[C@@H]1c1ccc(F)c(C)c1 [Compound 1312]
pest or weed control at 500 g/ha ([1]; 0 to 100 scale where 0 is no effect and 100 is complete control, read-out: Kochia plant response rating): 80% | pest or weed control at 125 g/ha [1, 16]: 50% | pest or weed control at 500 g/ha ([2]; 0 to 100 scale where 0 is no effect and 100 is complete control, read-out: Barnyardgrass plant response rating): 100% | pest or weed control at 125 g/ha [2, 17]: 90% | pest or weed control at 500 g/ha ([3]; 0 to 100 scale where 0 is no effect and 100 is complete control, read-out: Foxtail, Giant plant response rating): 100% | pest or weed control at 125 g/ha [3, 18]: 90% | pest or weed control at 500 g/ha ([4]; 0 to 100 scale where 0 is no effect and 100 is complete control, read-out: Pigweed plant response rating): 60% | pest or weed control at 125 g/ha [4, 19]: 20% | pest or weed control at 500 g/ha ([5]; 0 to 100 scale where 0 is no effect and 100 is complete control, read-out: Ragweed plant response rating): 100% | pest or weed control at 125 g/ha [5, 20]: 70% | pest or weed control at 125 g/ha [6]: 60% | pest or weed control at 125 g/ha [7]: 50% | pest or weed control at 500 g/ha [7]: 60% | pest or weed control at 125 g/ha [8]: 50% | pest or weed control at 500 g/ha [8]: 70% | pest or weed control at 125 g/ha [9]: 50% | pest or weed control at 500 g/ha [9]: 70% | plant injury at 125 g/ha [10]: 40% | Corn plant response rating (crop injury, 0 = no effect, 100 = complete kill) at 500 g/ha [10]: 90% | pest or weed control at 125 g/ha [11]: 90% | pest or weed control at 500 g/ha [11]: 90% | pest or weed control at 125 g/ha [12]: 0% | pest or weed control at 500 g/ha [12]: 40% | pest or weed control at 125 g/ha [13]: 0% | pest or weed control at 500 g/ha [13]: 70% | pest or weed control at 125 g/ha [14]: 30% | pest or weed control at 500 g/ha [14]: 50% | plant injury at 125 g/ha [15]: 30% | plant injury at 500 g/ha [15]: 80%

CN1C[C@H](c2ccc(C(F)(F)F)nc2)[C@@H](C(=O)Nc2ccc(F)c(F)c2F)C1=O [Compound 1373]
pest or weed control at 500 g/ha [1, 16]: 100% | pest or weed control at 125 g/ha [1, 16]: 100% | pest or weed control at 500 g/ha [2, 17]: 100% | pest or weed control at 125 g/ha [2, 17]: 90% | pest or weed control at 500 g/ha [3, 18]: 100% | pest or weed control at 125 g/ha [3, 18]: 100% | pest or weed control at 500 g/ha [4, 19]: 100% | pest or weed control at 125 g/ha [4, 19]: 90% | pest or weed control at 500 g/ha [5, 20]: 100% | pest or weed control at 125 g/ha [5, 20]: 100% | pest or weed control at 500 g/ha ([6]; 500 g ai/ha, preemergence): 90% | pest or weed control at 125 g/ha [6]: 60% | pest or weed control at 125 g/ha [7]: 60% | pest or weed control at 500 g/ha [7]: 60% | pest or weed control at 125 g/ha [8]: 80% | pest or weed control at 500 g/ha [8]: 80% | pest or weed control at 125 g/ha [9]: 50% | pest or weed control at 500 g/ha [9]: 60% | plant injury at 125 g/ha [10]: 90% | Corn plant response rating (crop injury, 0 = no effect, 100 = complete kill) at 500 g/ha [10]: 90% | pest or weed control at 125 g/ha [11]: 90% | pest or weed control at 500 g/ha [11]: 90% | pest or weed control at 125 g/ha [12]: 70% | pest or weed control at 500 g/ha [12]: 90% | pest or weed control at 125 g/ha [13]: 60% | pest or weed control at 500 g/ha [13]: 70% | pest or weed control at 125 g/ha [14]: 30% | pest or weed control at 500 g/ha [14]: 50% | plant injury at 125 g/ha [15]: 50% | plant injury at 500 g/ha [15]: 60%
